Measurements from patent US20060116407A1, “Amide derivatives” (priority 2004, published 2006).

How the values were obtained:
HER-2 = biological target: T1, HER-2 (Homo sapiens, UniProt P04626); test: Inhibition of HER-2 phosphorylation in Calu-3 tumor cell line; type: cell-based; conditions: Calu-3 cells, compound 1 μM, 16 h, pY 1248 in HER-2, percentage of DMSO control; read-out: Percent inhibition of HER2-phosphorylation (compound concentration 1 μM)
T1 construct: endogenous in cells; host or cells: Calu-3 (ATCC HTB-55)
Procedure: Inhibition of HER-2 Phosphorylation in Calu-3 Tumor Cell Line
2×10^5 Calu-3 (ATTC HTB-55) cells per well were plated in a 12-well plate. After 4 days cells were starved for 16 h in Dulbecco's Modified Eagle Medium (DMEM)/0.5% Fetal Calf Serum (FCS)/1% Glutamine. During this 16 h period cells were incubated with a solution of the test compound in dimethylsulfoxide(DMSO), so that the final concentration of the compound is 1 μM and the final volume of DMSO is 0.5%. Afterwards cells were lysed in lyses buffer containing 1% Triton®X-100, 10% Glycerol, 1 mM Ethylene glycol-bis(2-aminoethylether)-N,N,N′,N′-tetraacetic acid (EGTA), 1.5 mM MgCl2, 150 mM NaCl, 50 mM 4-(2-hydroxyethyl)-1-piperazineethanesulfonic acid (HEPES) buffer pH 7.5, 1 mM Phenylmethylsulfonyl fluoride (PMSF), 10 ∥g/mL Aprotinin and […] Orthovanadate. Cell lysates were analyzed on a Sodium Dodecyl Sulfate Polyacrylamide Gel Electrophoresis (SDS PAGE) and after transfer to a nitrocellulose membrane detected with an antibody specifically recognizing the pY 1248 in HER-2. Inhibition of HER-2 phosphorylation is calculated as percentage of the control, which is treated with DMSO only.

HEK293 cells = test: Viability assay of HEK293 cells (CellTiter-Glo); type: cell-based; conditions: Homo sapiens, 168 h, 7 days, 3 μM to 0.00015 μM, luminescence
Procedure: Viability Assay of HEK293 Cells
A viability assay was performed using the CellTiter-Glo™ Luminescent Cell Viability Assay (see Promega Corporation's Technical Publication No. 288, pp. 1-11 [revised 2.04] which is hereby incorporated by reference in its entirety). This assay is a homogeneous method of determining the number of viable cells in culture based on quantitation of the ATP present, which signals the presence of metabolically active cells. The assay is designed for use with multiwell formats, making it ideal for automated high-throughput screening (HTS), cell proliferation and cytotoxicity assays. The homogeneous assay procedure involves adding a single reagent (containing luciferase, luciferan substrate, and buffer) directly to cells cultured in serum-supplemented medium. Cell washing, removal of medium and multiple pipetting steps are not required. The system detects as few as 15 cells/well in a 384-well format in 10 minutes after adding reagent and mixing.
The homogeneous “add-mix-measure” format results in cell lysis and generation of a luminescent signal proportional to the amount of ATP present. The amount of ATP is directly proportional to the number of cells present in culture. The above-referenced assay generates a “glow-type” luminescent signal, produced by the luciferase reaction, which has a half-life generally greater than five hours, depending on cell type and medium used. The extended half-life eliminates the need to use reagent injectors and provides flexibility for continuous or batch mode processing of multiple plates. The unique homogeneous format avoids errors that may be introduced by other ATP measurement methods that require multiple steps.
HEK293 cells (human embryonic kidney cell line transformed by Adenovirus 5 fragments, ATCC-No. CRL 1573) were cultivated in Dulbecco's Modified Eagle Medium (DMEM) (1×) liquid (high glucose) (which includes L-Alanyl-L-Glutamine [a stabilized a form of L-Glutamine], 4500 mg/L glucose, and 110 mg/L sodium pyruvate) from Invitrogen Corporation (Invitrogen Catalog Number 31966-021 [now 10569-010] which is hereby incorporated by reference in its entirety), 5% Fetal Calf Serum (FCS, Sigma Cat-No. F4135 (FBS) which is hereby incorporated by reference in its entirety), and 100 Units/ml penicillin/100 μg/ml streptomycin(=Pen/Strep from Invitrogen Cat. No. 15140 which is hereby incorporated by reference in its entirety). For the assay the cells were seeded in 384 well plates, 5000 cells per well, in the same medium. The next day the test compounds were added in various concentrations ranging from 3 μM to 0.00015 μM (10 concentrations, 1:3 diluted). After 7 days the above viability assay was performed in accordance with the following steps: • Step 1: The cell-plate was equilibrated to room temperature for approximately 30 minutes and than the assay reagent was added. • Step 2: The contents were carefully mixed for 15 minutes to induce cell lysis. • Step 3: After 45 minutes the luminescent signal was measured in Victor 2, (scanning multiwell spectrophotometer, Wallac). Details: 1st Day: • Medium: Dulbecco's Modified Eagle Medium (DMEM) (1×) liquid (high glucose) (which includes L-Alanyl-L-Glutamine [a stabilized a form/source of L-Glutamine], 4500 mg/L glucose, and 110 mg/L sodium pyruvate) from Invitrogen Corporation (Invitrogen Catalog Number 31966-021 [now 10569-010]), 5% Fetal Calf Serum (FCS, Sigma Cat-No. F4135 (FBS)), and Pen/Strep (Invitrogen Cat. No. 15140). • HEK293 (ATCC-No. CRL 1573): 5000 cells in 60 μl per well of 384 well plate. (Greiner 781098, white plates) • Incubate 24 h at 37° C., 5% CO2 2nd Day: Induction (Substance Testing):
In general the dilution steeps are 1:3 a) Add 8 μl of 10 mM stock solution of compound to 72 μl DMSO b) dilute 9×1:3 (always 30 μl to 60 μl DMSO) in this DMSO dilution row (results in 10 wells with concentrations from 1000 μM to 0.06 μM) c) dilute each concentration 1: 4.8 (10 μl compound dilution to 38 μl medium) […]

T1 sequence (P04626 23-1255): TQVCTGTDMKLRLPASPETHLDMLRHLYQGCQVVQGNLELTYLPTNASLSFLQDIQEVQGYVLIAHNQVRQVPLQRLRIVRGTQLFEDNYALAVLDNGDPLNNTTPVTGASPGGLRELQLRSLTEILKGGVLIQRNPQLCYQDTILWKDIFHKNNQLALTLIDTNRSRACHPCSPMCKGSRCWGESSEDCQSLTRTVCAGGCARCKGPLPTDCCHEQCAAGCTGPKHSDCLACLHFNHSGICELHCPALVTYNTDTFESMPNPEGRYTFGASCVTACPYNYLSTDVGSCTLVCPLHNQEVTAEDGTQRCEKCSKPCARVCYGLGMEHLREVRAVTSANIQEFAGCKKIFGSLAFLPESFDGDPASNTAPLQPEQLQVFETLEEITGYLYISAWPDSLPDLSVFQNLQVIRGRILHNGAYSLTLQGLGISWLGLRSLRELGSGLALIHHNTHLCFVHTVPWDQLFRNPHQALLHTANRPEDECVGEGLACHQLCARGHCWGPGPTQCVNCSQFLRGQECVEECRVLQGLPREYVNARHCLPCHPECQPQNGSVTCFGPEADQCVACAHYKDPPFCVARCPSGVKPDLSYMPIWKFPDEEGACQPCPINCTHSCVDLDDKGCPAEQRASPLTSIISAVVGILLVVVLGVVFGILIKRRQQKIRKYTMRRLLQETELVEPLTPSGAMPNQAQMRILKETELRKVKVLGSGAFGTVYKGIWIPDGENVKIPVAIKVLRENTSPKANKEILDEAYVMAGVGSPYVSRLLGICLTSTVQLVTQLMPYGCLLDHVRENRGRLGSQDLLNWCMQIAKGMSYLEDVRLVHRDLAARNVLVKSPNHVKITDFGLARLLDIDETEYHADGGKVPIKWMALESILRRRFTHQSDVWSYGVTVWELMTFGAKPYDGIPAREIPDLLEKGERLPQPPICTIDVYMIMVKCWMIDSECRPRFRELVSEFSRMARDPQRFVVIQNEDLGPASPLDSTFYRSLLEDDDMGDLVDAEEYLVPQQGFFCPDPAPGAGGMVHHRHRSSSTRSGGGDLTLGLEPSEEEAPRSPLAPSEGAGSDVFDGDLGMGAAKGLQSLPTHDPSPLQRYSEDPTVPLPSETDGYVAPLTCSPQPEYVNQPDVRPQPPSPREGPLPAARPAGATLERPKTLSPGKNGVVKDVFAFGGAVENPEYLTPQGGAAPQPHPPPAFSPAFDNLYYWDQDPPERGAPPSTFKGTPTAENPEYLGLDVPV

inhibition at 1 µM (HER-2) [%]	Compound	IC50 (HEK293 cells) [µM]
> 80	O=C(Nc1ccc(OC(F)(F)F)cc1)c1csc(COc2ccc(CCCCn3ccnn3)cc2)n1 [Example 43, 2-[4-(4-[1,2,3]Triazol-1-yl-butyl)-phenoxymethyl]-thiazole-4-carboxylic acid (4-trifluoromethoxy-phenyl)-amide]	0.5 to 3
87	O=C(Nc1ccc(OC(F)(F)F)cc1)c1nc(COc2ccc(CCCCn3ccnn3)cc2)cs1 [Example 39, 4-[4-(4-[1,2,3]Triazol-1-yl-butyl)-phenoxymethyl]-thiazole-2-carboxylic acid (4-trifluoromethoxy-phenyl)-amide]	0.005 to 0.5
> 80	O=C(Nc1ccc(C(F)(F)F)cc1)c1coc(COc2ccc(CCCCn3ccnn3)cc2)n1 [Example 13, 2-[4-(4-[1,2,3]Triazol-1-yl-butyl)-phenoxymethyl]-oxazole-4-carboxylic acid (4-trifluoromethyl-phenyl)-amide]	0.005 to 0.5
